Experiments:
[1] = Stability of the crystalline form during isolation and drying; assay type: physicochemical
Text: According to another of its aspects, subject-matter of the invention is a process for the preparation of the NP01 Form of Siponimod Hemifumarate, comprising carrying out the steps (a) and (b) stated above for the preparation of the NP04 Form.

[2] = Stability assays of the NP04 Form (storage, humidity, shredding, compression); assay type: physicochemical
Protocol: Stability assays of the NP04 Form
Aliquots of the compound obtained from Example 1 were subjected to the following assays: • closed in a sealed bottle for 8 days • at 25° C. with 100% relative humidity for 7 days • at 25° C. with 60% relative humidity for 7 days • at 60° C. with 75% relative humidity for 3 days • shredding treatment • Compression test under 1, 2 and 3 tons

Row | Structure (SMILES) | stability of the crystalline form [1] | solid form stability (form recovered after treatment) ([2]; 25° C. with 60% relative humidity for 7 days) | solid form stability (form recovered after treatment) ([2]; 25° C. with 100% relative humidity for 7 days) | solid form stability (form recovered after treatment) ([2]; 60° C. with 75% relative humidity for 3 days) | solid form stability (form recovered after treatment) ([2]; closed in a sealed bottle for 8 days) | solid form stability (form recovered after treatment) ([2]; compression test under 1, 2 and 3 tons) | solid form stability (form recovered after treatment) ([2]; shredding treatment)
1 | CCc1cc(/C(C)=N/OCc2ccc(C3CCCCC3)c(C(F)(F)F)c2)ccc1CN1CC(C(=O)O)C1 [NP01 Form, Siponimod Hemifumarate] | unstable and converts to the NP04 Form |  |  |  |  |  | 
2 | CCc1cc(/C(C)=N/OCc2ccc(C3CCCCC3)c(C(F)(F)F)c2)ccc1CN1CC(C(=O)O)C1 [NP04 Form, Siponimod Hemifumarate] |  | stable | stable | stable | stable | stable | stable
